This series relates to isolated rat colonic mucosae. Description: TEER and Papp of [14C]-mannitol in isolated rat colonic mucosae mounted in Ussing chambers. The series is classed as in vitro ADME.

Procedure: Ussing Chambers allow the measurement of transport molecules from the apical side of a section of intestinal tissue (rodent) to the basolateral, thereby simulating passage across the gut wall in vivo. […] Their ability to improve intestinal permeability was testing in isolated rat colonic mucosae by measurement of transepithelial electrical resistance (TEER) and permeability of [14C]-mannitol. The permeability of the marker molecule, radioactively labelled sugar ([C14]-Mannitol) was calculated by scintillation counting.
The transepithelial potential difference (PD, mV) is measured in the open circuit configuration after which the tissue is voltage clamped to zero PD by insertion of the required short circuit current (Isc, μA cm^−2) by means of an automatic voltage clamp (EVC-4000 amplifier, WPI, UK).
Isc and PD are alternatively monitored by switching to open circuit conditions for 3 s every 30 s using a timer (Pro-4, WPI, UK). Analogue data was digitised with a Powerlab® data acquisition unit and analyzed with Chart® software package (AD instruments, UK).
Following an equilibration period of 45 min, baseline PD and Isc are measured and TEER (Ω cm^2) is calculated according to Ohm's law.
Transport of radiolabelled mannitol from the apical chamber to the basolateral chamber was used to measure intestinal permeability.
Following addition of [^14C]-mannitol (0.2 μCi) to the apical chamber flux is monitored periodically over two hours by sampling the serosal chamber (100 μL) every 20 minutes for two hours, and apically (100 μL) at time zero, replenishing with fresh KH buffer at each sampling point.
Samples containing [^14C]-mannitol were mixed with scintillation fluid and read in a scintillation analyzer (Packard Tricarb 2900 TR).
The apparent permeability coefficient (Papp) for mannitol and FD4 is calculated according to the equation; Papp (cm/s)=(dQ/dt) (1/AC0), where dQ/dt is the transport rate (mol/s); A is the surface area of the monolayer (cm^2), and C0 is the initial concentration in the donor compartment (mol/mL).

In the case of `C[C@H](CCC(=O)NCCS(=O)(=O)O)[C@H]1CC[C@H]2[C@@H]3[C@H](O)C[C@@H]4C[C@H](O)CC[C@]4(C)[C@H]3C[C@H](O)[C@]12C` [TCA, taurocholic acid], under “10, 25 and 50 mg of TCA added to the encapsulation system”, the TEER result is listed as “reduced TEER”.
For cyanocobalamin [Vitamin B12], the “enhancement of mannitol flux” value (25 mg Vitamin B12 in encapsulation systems) came out at 11.5 fold. Also, the TEER result (Vitamin B12 in encapsulation systems, over 2 hours) is “significantly reduced TEER”.

(Values after patent US10092517B2, “Gelated microparticle suitable for oral delivery of therapeutic peptides to the lower intestine” (Insucaps Limited, priority 2015, dated 2018).)
